ChEMBL document CHEMBL3991601, “The target landscape of clinical kinase drugs” (Science, 2017)
pKd: −log10 of the molar value. Calls of active or inactive are those of the source.

Tests used:
[1] = biological target: Activated CDC42 kinase 1 (Homo sapiens, UniProt Q07912)
[2] = biological target: T1, Glycogen phosphorylase, brain form (Homo sapiens, UniProt P11216)
T1 sequence (P11216 whole entry): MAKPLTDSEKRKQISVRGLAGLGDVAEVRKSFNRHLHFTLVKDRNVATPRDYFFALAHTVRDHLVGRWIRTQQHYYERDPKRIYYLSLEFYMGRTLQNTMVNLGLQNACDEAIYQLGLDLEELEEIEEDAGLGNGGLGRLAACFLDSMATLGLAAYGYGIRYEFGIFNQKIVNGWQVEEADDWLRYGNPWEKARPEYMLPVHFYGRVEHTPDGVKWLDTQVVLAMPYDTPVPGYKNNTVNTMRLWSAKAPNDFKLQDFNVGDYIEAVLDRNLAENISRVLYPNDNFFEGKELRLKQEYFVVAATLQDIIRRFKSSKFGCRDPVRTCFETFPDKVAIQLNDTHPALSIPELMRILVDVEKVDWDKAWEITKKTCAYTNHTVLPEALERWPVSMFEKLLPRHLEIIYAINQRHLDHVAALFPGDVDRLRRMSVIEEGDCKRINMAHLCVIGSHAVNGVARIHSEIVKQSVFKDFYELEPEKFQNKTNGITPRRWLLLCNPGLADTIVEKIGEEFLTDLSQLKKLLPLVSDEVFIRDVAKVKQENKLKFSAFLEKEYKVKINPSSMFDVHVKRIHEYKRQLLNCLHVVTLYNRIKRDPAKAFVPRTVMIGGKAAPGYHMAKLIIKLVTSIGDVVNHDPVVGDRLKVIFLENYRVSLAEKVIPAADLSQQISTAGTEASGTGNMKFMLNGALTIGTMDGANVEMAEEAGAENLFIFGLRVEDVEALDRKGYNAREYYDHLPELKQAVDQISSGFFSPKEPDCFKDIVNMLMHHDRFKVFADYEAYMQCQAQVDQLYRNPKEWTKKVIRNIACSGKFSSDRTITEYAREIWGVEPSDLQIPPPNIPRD

[3] = biological target: T2, Bone morphogenetic protein receptor type-2 (Homo sapiens, UniProt Q13873)
T2 sequence (Q13873 whole entry): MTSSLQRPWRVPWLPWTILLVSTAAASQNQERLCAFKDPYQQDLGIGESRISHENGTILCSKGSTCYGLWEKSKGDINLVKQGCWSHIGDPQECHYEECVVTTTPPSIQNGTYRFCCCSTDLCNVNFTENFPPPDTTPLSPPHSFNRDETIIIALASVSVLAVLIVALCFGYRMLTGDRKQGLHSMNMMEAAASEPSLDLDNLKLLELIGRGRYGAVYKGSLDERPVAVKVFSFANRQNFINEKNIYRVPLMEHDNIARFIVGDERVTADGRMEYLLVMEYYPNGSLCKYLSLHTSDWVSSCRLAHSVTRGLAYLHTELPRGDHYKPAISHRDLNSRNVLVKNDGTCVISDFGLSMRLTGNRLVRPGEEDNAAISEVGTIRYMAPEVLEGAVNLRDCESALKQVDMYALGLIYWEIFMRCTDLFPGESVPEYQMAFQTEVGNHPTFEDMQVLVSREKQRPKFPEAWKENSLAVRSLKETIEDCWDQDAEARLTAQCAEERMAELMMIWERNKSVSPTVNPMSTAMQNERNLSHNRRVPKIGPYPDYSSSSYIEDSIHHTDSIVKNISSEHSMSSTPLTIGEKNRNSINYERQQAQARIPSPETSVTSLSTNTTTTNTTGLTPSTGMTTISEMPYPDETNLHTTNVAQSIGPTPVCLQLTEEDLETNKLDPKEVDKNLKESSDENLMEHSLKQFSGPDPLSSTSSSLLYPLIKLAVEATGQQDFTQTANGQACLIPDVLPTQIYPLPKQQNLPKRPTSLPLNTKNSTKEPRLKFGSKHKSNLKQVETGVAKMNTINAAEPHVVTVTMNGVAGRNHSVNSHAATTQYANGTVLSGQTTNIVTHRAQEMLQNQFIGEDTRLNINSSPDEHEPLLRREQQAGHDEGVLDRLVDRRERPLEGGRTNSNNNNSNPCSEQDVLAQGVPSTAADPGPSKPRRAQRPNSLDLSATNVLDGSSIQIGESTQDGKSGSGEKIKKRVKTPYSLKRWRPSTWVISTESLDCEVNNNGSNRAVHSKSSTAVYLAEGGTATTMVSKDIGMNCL

[4] = biological target: U5 small nuclear ribonucleoprotein 200 kDa helicase (Homo sapiens, UniProt O75643)
[5] = biological target: Mitogen-activated protein kinase 10 (Homo sapiens, UniProt P53779)
[6] = biological target: Chromodomain-helicase-DNA-binding protein 4 (Homo sapiens, UniProt Q14839)
[7] = biological target: 26S proteasome regulatory subunit 6B (Homo sapiens, UniProt P43686)
[8] = biological target: T3, ADP/ATP translocase 2 (Homo sapiens, UniProt P05141)
T3 sequence (P05141 whole entry): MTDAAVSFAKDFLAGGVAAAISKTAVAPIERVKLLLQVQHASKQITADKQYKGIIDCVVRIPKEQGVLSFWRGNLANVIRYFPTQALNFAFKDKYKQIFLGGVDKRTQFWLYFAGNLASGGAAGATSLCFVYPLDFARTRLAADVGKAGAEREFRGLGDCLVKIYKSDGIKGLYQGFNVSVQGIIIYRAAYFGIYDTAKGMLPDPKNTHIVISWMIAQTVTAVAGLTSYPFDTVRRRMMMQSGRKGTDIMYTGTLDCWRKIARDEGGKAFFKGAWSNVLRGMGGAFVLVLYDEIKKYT
Note: in the data inactive means no Kd found up to 30 µM.

Activated CDC42 kinase 1, sequence (Q07912 whole entry): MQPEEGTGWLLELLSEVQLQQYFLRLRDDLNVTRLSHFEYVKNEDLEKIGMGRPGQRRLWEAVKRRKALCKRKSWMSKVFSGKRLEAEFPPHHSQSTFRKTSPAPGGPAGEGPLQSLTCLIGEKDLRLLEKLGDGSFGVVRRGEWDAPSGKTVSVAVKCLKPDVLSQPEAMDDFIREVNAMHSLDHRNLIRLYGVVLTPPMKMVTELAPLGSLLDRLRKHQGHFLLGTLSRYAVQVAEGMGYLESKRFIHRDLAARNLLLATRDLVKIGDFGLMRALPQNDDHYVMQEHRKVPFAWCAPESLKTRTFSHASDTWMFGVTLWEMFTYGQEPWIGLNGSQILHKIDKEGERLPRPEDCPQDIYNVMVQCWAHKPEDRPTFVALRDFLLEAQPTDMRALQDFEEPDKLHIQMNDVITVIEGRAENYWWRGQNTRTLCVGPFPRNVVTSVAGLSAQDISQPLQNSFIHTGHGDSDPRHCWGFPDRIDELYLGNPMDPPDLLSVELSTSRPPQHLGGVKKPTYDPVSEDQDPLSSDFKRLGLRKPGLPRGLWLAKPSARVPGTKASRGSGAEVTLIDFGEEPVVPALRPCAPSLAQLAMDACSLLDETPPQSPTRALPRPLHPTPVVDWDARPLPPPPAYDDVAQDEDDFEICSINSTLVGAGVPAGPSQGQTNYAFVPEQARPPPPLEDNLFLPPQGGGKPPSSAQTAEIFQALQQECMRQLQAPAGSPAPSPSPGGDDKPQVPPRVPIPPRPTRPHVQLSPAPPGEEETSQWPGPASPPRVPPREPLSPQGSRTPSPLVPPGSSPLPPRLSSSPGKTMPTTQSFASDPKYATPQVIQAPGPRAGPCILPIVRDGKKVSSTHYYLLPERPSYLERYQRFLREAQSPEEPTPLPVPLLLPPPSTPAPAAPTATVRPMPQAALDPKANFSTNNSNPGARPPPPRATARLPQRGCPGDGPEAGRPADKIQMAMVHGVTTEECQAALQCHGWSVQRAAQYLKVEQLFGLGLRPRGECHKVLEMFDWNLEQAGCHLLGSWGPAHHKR
Mitogen-activated protein kinase 10, sequence (P53779 whole entry): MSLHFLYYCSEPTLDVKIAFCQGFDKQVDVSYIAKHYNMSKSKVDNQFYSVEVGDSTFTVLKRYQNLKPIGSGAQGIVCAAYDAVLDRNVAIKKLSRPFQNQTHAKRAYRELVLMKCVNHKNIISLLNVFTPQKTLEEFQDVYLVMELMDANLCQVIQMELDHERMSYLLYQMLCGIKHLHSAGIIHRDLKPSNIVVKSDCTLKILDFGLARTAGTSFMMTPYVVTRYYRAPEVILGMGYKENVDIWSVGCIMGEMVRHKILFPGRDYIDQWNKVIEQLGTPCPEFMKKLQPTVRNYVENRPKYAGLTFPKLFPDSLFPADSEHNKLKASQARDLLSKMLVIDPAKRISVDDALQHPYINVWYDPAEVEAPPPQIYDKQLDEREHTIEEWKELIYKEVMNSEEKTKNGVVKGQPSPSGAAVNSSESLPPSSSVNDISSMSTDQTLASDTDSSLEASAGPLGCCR
U5 small nuclear ribonucleoprotein 200 kDa helicase, sequence (O75643 whole entry): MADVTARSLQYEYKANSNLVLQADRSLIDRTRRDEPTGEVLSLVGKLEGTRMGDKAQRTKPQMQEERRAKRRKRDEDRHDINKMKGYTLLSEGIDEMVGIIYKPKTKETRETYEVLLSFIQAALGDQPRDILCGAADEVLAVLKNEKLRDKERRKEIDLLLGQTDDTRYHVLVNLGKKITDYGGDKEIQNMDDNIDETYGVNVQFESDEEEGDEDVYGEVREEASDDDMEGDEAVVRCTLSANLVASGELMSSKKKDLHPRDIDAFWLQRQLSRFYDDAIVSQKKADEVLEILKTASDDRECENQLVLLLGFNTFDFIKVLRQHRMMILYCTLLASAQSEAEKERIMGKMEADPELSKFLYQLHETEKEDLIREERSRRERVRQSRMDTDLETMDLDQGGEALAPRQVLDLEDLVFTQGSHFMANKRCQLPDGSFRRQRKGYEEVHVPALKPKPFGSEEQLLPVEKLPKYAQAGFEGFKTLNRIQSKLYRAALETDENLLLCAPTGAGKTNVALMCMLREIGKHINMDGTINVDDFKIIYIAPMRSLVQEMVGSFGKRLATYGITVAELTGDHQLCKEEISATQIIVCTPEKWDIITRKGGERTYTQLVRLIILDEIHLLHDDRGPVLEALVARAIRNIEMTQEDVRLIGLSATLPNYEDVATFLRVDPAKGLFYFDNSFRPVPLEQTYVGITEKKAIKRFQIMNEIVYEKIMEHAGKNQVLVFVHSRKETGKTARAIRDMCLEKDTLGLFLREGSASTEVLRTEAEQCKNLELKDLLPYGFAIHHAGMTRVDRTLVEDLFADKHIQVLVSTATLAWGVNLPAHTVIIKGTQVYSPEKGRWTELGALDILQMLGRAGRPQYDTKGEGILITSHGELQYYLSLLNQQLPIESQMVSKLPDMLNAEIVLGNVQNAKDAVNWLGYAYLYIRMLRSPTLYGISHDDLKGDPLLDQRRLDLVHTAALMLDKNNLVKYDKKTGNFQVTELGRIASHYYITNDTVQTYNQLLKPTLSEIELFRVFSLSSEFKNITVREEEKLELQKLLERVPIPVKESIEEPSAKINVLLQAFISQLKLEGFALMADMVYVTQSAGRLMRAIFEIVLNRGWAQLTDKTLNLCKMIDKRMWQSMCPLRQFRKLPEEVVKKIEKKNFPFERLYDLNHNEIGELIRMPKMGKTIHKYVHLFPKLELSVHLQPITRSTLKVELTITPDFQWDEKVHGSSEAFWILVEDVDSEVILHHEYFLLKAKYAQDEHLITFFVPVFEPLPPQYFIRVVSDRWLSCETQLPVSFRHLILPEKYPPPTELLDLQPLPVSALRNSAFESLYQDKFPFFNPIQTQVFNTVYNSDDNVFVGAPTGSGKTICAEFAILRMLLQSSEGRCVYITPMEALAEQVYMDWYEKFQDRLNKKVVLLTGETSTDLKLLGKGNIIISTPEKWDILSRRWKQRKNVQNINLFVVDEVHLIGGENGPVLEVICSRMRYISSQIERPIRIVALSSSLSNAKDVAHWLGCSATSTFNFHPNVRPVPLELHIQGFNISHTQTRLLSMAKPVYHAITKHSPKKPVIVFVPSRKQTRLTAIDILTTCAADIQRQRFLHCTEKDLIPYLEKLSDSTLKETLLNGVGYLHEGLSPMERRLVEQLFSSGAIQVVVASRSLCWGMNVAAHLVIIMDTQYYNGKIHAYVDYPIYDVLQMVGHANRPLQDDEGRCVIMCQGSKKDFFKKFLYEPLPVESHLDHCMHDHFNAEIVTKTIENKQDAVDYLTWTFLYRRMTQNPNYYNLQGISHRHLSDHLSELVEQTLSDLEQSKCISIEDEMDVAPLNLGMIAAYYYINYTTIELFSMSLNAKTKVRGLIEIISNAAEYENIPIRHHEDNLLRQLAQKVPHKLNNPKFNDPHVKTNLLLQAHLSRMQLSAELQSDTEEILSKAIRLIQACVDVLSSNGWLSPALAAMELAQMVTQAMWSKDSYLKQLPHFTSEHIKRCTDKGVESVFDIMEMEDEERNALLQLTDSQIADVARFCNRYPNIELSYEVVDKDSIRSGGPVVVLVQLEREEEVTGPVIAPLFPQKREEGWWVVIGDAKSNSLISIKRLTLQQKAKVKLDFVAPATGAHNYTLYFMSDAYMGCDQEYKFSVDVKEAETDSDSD
26S proteasome regulatory subunit 6B, sequence (P43686 whole entry): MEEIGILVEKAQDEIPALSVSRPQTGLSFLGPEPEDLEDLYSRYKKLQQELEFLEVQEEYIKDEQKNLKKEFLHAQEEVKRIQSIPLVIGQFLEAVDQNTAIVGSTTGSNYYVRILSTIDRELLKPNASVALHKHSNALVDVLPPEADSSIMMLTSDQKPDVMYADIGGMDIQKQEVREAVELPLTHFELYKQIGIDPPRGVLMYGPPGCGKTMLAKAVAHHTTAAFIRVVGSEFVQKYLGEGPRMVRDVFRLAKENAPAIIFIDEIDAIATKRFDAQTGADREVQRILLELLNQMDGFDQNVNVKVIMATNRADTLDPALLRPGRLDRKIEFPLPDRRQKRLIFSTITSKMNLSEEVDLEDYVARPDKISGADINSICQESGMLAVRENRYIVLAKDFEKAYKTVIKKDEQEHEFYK

Kd [1] | Kd [2] | Kd [3] | Kd [4] | Kd [5] | Kd [6] | Kd [7] | Kd [8] | pKd [1] | Structure (SMILES) | pKd [5]
> 30 µM (inactive) | > 30 µM (inactive) | > 30 µM (inactive) | > 30 µM (inactive) | > 30 µM (inactive) | > 30 µM (inactive) | > 30 µM (inactive) | > 30 µM (inactive) | – | CC[C@@H]1C(=O)N(C)c2cnc(Nc3ccc(C(=O)N[C@H]4CC[C@H](N5CCN(CC6CC6)CC5)CC4)cc3OC)nc2N1C(C)C [VOLASERTIB] | –
> 30 µM (inactive) | > 30 µM (inactive) | > 30 µM (inactive) | > 30 µM (inactive) | > 30 µM (inactive) | > 30 µM (inactive) | > 30 µM (inactive) | > 30 µM (inactive) | – | C[C@@H]1CN(Cc2ccc(F)cc2)[C@@H](C)CN1C(=O)c1cc2c(C(=O)C(=O)N(C)C)cn(C)c2cc1Cl [TALMAPIMOD] | –
> 30 µM (inactive) | > 30 µM (inactive) | > 30 µM (inactive) | > 30 µM (inactive) | > 30 µM (inactive) | > 30 µM (inactive) | > 30 µM (inactive) | > 30 µM (inactive) | – | CO[C@H]1C[C@@H]2CC[C@@H](C)[C@@](O)(O2)C(=O)C(=O)N2CCCC[C@H]2C(=O)O[C@H]([C@H](C)C[C@@H]2CC[C@@H](OCCO)[C@H](OC)C2)CC(=O)[C@H](C)/C=C(\C)[C@@H](O)[C@@H](OC)C(=O)[C@H](C)C[C@H](C)/C=C/C=C/C=C/1C [EVEROLIMUS] | –
> 30 µM (inactive) | > 30 µM (inactive) | > 30 µM (inactive) | > 30 µM (inactive) | > 30 µM (inactive) | > 30 µM (inactive) | > 30 µM (inactive) | > 30 µM (inactive) | – | Cn1cc(-c2ccc(F)c(C(F)(F)F)c2)nc1C1CCN(c2ncnc3[nH]ncc23)CC1 [LY-2584702] | –
> 30 µM (inactive) | > 30 µM (inactive) | > 30 µM (inactive) | > 30 µM (inactive) | > 30 µM (inactive) | > 30 µM (inactive) | > 30 µM (inactive) | > 30 µM (inactive) | – | COc1cc2nccc(Oc3ccc(NC(=O)Nc4cc(C)on4)c(Cl)c3)c2cc1OC [TIVOZANIB] | –
> 30 µM (inactive) | > 30 µM (inactive) | > 30 µM (inactive) | > 30 µM (inactive) | > 30 µM (inactive) | > 30 µM (inactive) | > 30 µM (inactive) | > 30 µM (inactive) | – | CC(C)Nc1cc(-c2c[nH]c(C(=O)N[C@H](CO)c3cccc(Cl)c3)c2)c(Cl)cn1 [ULIXERTINIB] | –
> 30 µM (inactive) | > 30 µM (inactive) | > 30 µM (inactive) | > 30 µM (inactive) | > 30 µM (inactive) | > 30 µM (inactive) | > 30 µM (inactive) | > 30 µM (inactive) | – | Cc1ccc(NC(=O)c2ccc(CN3CC[C@H](N(C)C)C3)c(C(F)(F)F)c2)cc1Nc1nccc(-c2cncnc2)n1 [BAFETINIB] | –
> 30 µM (inactive) | > 30 µM (inactive) | > 30 µM (inactive) | > 30 µM (inactive) | > 30 µM (inactive) | > 30 µM (inactive) | > 30 µM (inactive) | > 30 µM (inactive) | – | COc1ccc(-c2ccc3c(N4CCOC[C@@H]4C)nc(N4CCOC[C@@H]4C)nc3n2)cc1CO [AZD-8055] | –
0.473 µM (active) | > 30 µM (inactive) | > 30 µM (inactive) | > 30 µM (inactive) | 3.08 µM (active) | > 30 µM (inactive) | > 30 µM (inactive) | > 30 µM (inactive) | – | O=C(O)[C@]1(Cc2cccc(Nc3nccs3)n2)CC[C@@H](Oc2cccc(Cl)c2F)CC1 [MK-5108] | –
– | > 30 µM (inactive) | > 30 µM (inactive) | > 30 µM (inactive) | > 30 µM (inactive) | > 30 µM (inactive) | > 30 µM (inactive) | > 30 µM (inactive) | 6.83 | COc1cc(CCc2cc(NC(=O)c3ccc(N4C[C@@H](C)N[C@@H](C)C4)cc3)n[nH]2)cc(OC)c1 [AZD-4547] | –

Structure (SMILES) | Kd [1] | Kd [2] | Kd [3] | Kd [4] | Kd [5] | Kd [6] | Kd [7] | Kd [8] | pKd [1] | pKd [5]
Cc1cc(-c2cc(O)ccc2Cl)cc2nnc(Nc3ccc(OCCN4CCCC4)cc3)nc12 | > 30 µM (inactive) | > 30 µM (inactive) | 0.003 µM (active) | > 30 µM (inactive) | > 30 µM (inactive) | > 30 µM (inactive) | > 30 µM (inactive) | > 30 µM (inactive) | – | –
O=C(c1ccc(F)c(F)c1Nc1ccc(I)cc1F)N1CC(O)([C@@H]2CCCCN2)C1 [COBIMETINIB] | > 30 µM (inactive) | > 30 µM (inactive) | > 30 µM (inactive) | > 30 µM (inactive) | > 30 µM (inactive) | > 30 µM (inactive) | > 30 µM (inactive) | > 30 µM (inactive) | – | –
CN1CCC(COc2cnc(-c3cccc(Cn4nc(-c5cccc(C#N)c5)ccc4=O)c3)nc2)CC1 [TEPOTINIB] | > 30 µM (inactive) | > 30 µM (inactive) | > 30 µM (inactive) | > 30 µM (inactive) | > 30 µM (inactive) | > 30 µM (inactive) | > 30 µM (inactive) | > 30 µM (inactive) | – | –
Cc1ccc(-n2nc(C(C)(C)C)cc2NC(=O)NCc2cc(F)ccc2Oc2ccc3c(cnn3CCO)c2)cc1 [PEXMETINIB] | > 30 µM (inactive) | > 30 µM (inactive) | > 30 µM (inactive) | > 30 µM (inactive) | – | > 30 µM (inactive) | > 30 µM (inactive) | > 30 µM (inactive) | – | 6.71
